Paper PMC10644722, “Discovery of inhibitors of protein tyrosine phosphatase 1B contained in a natural products library from Mexican medicinal plants and fungi using a combination of enzymatic and in silico methods**” (Frontiers in Pharmacology, 2023)
Where “and” joins values, the source holds several entries; their conditions need not be identical. Identical values can stand only once. Entries after “also recorded” stand apart in the source; their conditions may differ. Like-named read-outs stand apart in the source and are kept apart here.

Columns and labels:
[1] = molecular target: T1, hPTP1B1-400 (Homo sapiens, UniProt P18031); assay: PTP1B inhibition assay (spectrophotometric, 4-nitrophenyl phosphate); assay type: biochemical; conditions: for ΔA, activity difference between UA and the compound: absolute pIC50 difference against ursolic acid
T1 sequence (P18031 1-400): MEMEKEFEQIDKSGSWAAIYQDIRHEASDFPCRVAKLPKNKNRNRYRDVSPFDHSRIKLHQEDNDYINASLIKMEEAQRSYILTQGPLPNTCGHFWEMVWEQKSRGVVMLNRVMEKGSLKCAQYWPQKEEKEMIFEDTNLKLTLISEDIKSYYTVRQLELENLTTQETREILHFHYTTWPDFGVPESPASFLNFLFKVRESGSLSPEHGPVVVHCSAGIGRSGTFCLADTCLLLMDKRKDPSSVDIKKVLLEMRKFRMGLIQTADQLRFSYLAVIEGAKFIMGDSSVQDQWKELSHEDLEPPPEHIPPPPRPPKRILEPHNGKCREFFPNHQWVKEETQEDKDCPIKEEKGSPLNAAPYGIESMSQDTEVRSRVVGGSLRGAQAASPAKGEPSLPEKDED
Procedure: The inhibitory activity was determined as a percentage compared to the blank (Buffer) according to the following equation: %InhibitionPTP1B=1−A405s/A405b×100%, (1) where A405(s) is the ΔA of the sample (At20 − At0), A405(b) is the ΔA of the blank obtained in the same manner as that of the sample. Using the data obtained, the enzyme inhibition curve was plotted, for which the average percentage of inhibition was plotted as a function of the inhibitor concentration.

[2] = molecular target: T2, PTP1B (Homo sapiens, UniProt P18031); assay: Kinetic analysis of PTP1B inhibition; assay type: biochemical; conditions: for type of inhibition: double-reciprocal plots, global nonlinear fit; for VMAX: maximum velocity, nonlinear fit, substrate 4-NP
T2 sequence (P18031 1-400): T1 sequence (P18031 1-400)
Procedure: The conditions for preparing reagents (enzyme and substrate), incubation, and analysis of results were the same as that described in Section 2.1 ([Jiménez-Arreola et al., 2020]; [Díaz-Rojas et al., 2021]). Additional steps in the methodology are described below.
To characterize the type of inhibition exerted by 1, 3, and 6 on PTP1B, the hydrolysis of 4-NP at the sub-saturating state and increasing concentrations of each compound was measured. […] The compound concentration yielding 50% activity inhibition was interpolated from the results by fitting into a general inhibition model. The resulting set of activities was fitted globally using the non-linear regression algorithm of Levenberg–Marquardt as implemented in the Gnuplot ([Williams et al., 2017]). Each group was fitted to the kinetic equations for linear competitive, linear uncompetitive, linear non-competitive (classic), linear mixed type, parabolic competitive, parabolic uncompetitive, and parabolic non-competitive inhibition mechanisms. The best fit was ascertained by the reduced chi-squared (χ^2) value, residual distribution, and uncertainty in the parameter estimates. The best description of the inhibition data for compounds 1, 3, and 6 was obtained with Eq. 2, Eq. 3, and Eq. 4, respectively, where VMAX, KM, and KIcu, KIC, and KIU are the maximum velocity, Michaelis constant for the substrate 4-NP, and inhibition constants for each type of inhibition, respectively. v0=VMAX4NP/KM1+I/KIcu+4NP1+I/KIcu, (2) v0=VMAX4NP/KM1+I/KIC+4NP1+I/KIU, (3) v0=VMAX4NP/KM1+I/KIC+I^2/KIC2^2+4NP. (4)

[3] = tested on: PTP1B; parameters: method as in Lantz et al., 2010; Kumar et al., 2020; conditions: known inhibitors of PTP1B; ref Lantz et al., 2010; Kumar et al., 2020; cited from earlier work
[4] = tested on: ICR mice; conditions: male, mouse, in vivo, 14 days
Procedure: The potential acute toxicity of compound 6 was determined according to the Lorke’s method ([Lorke, 1983]). The evaluation was performed following the Official Mexican Norm for Laboratory Animal Care and Use (NOM-062-ZOO-1999), with international conventional codes for laboratory animal use, and approved by the Institutional Committee for Care and Use of Laboratory Animals (CICUAL-FQ), Facultad de Química, UNAM (FQ/CICUAL/440/21). […]. At the end of the experiments, the mice were euthanized by hypoxia in a CO2 chamber.
Compound 6 was fed by an intragastric route in two independent phases. In each case, 12 mice were divided into four groups (n = 3). In the first stage, the animals were treated with 10, 100, and 1,000 mg/kg; in the second phase, 1,600, 2,900, and 5,000 mg/kg were administered. The control animals were fed 0.05% Tween 80® in saline solution. The weight of the animals was measured daily for 14 days at each stage. At the end of the test, all animals were euthanized to obtain the lungs, heart, kidneys, and liver to detect macroscopic organ injury.

[5] = DoseResp model fit, Origin 8.0, axis C (mM), read-out: LOGx0 of the IC50 curve
[6] = enzyme 66 nM, 4-NP 0.125 mM, Tris-HCl pH 6.8, 20 min, room temperature, read-out: IC50
[7] = negative log of the IC50 in Molar, read-out: pIC50 (converted)
[8] = mixed type (Eq. 3) or parabolic competitive model (Eq. 4), read-out: KIC
[9] = negative log of the IC50 in Molar
[10] = Hill1 model fit, Origin 8.0, axis C (mM), read-out: k of the IC50 curve

| Molecule | IC50 [1, 5] | ΔA, activity difference between UA and the compound [1] | IC50 [1, 6] | IC50 [1, 7] | pIC50 [1, 9] | also measured |
| --- | --- | --- | --- | --- | --- | --- |
| C[C@H]1C(=O)CC[C@@H]2[C@]1(C)CC[C@H]1[C@@]2(C)CC[C@@]2(C)[C@@H]3CC(C)(C)CC[C@]3(CO)CC[C@]12C [Compound 1, Canophyllol] | 0.0332 ± 0.00257 mM | 0.2 | 0.0332 ± 3e-06 mM | 0.0331 mM |  | %I ([1]; 0.02 mM compound): 95.54 ± 1.82%; %I ([1]; 1 mM compound): 98.59 ± 0.28%; type of inhibition [2]: non-competitive inhibitor; VMAX [2]: 44.1 mM/min; Ki ([2]; non-competitive model (Eq. 2), read-out: KIcu): 9 µM |
| CC(C)[C@@H](CC[C@@H](C)[C@H]1CC[C@H]2[C@@H]3[C@H](O)C[C@H]4C[C@@H](NCCCNCCCCNCCCN)CC[C@]4(C)[C@H]3CC[C@]12C)OS(=O)(=O)O [T, trodusquemine] |  |  |  |  |  | pIC50 [3]: 6.0 |
| Cc1cc(-c2c3ccccc3c(Br)c3sc(C)c(C)c23)cc(C)c1O[C@H](Cc1ccccc1)C(=O)O [E, ertiprotafib] |  |  |  |  |  | pIC50 [3]: 4.70 |
| C=C(C)[C@H]1COc2c(C)cc3oc4c(C[C@H](O)C(C)(C)O)ccc(O)c4c(=O)c3c2[C@@H]1O [Compound 7, Tajixanthone hydrate] | 0.0832 ± 0.00124 mM | 0.6 | 0.0832 ± 1e-06 mM | 0.0832 mM |  |  |
| CC=CC1=CC=CC(=C2C(=O)CNC2=O)O1 [Compound 6, E/Z-vermelhotin] | 0.0796 ± 0.0957 mM | 0.6 and 0.56 | 0.0796 ± 0.0001 mM | 0.0794 mM |  | LC50 [4]: higher than 5,000 mg/kg; type of inhibition [2]: competitive parabolic inhibition; VMAX [2]: 24.7 mM/min; Ki [2, 8]: 31 µM; Ki ([2]; parabolic competitive model (Eq. 4), second inhibitor molecule, read-out: KIC2): 20 µM |
| COc1cc(C)c2c(=O)c3c(O)cc(OC)cc3oc2c1 [Compound 9, Lichexanthone] | 0.0888 ± 0.00531 mM | 0.6 | 0.0888 ± 5e-06 mM | 0.0891 mM |  |  |
| COc1c(O)cc2ccc3cccc(O)c3c2c1OC [Compound 3, 3,4-Dimethoxy-2,5-phenanthrenediol] | 0.0477 ± 0.0982 mM | 0.34 and 0.3 | 0.0477 ± 0.0001 mM | 0.0479 mM |  | %I ([1]; 0.02 mM compound): 70.62 ± 0.58%; %I ([1]; 1 mM compound): 97.4 ± 0.69%; type of inhibition [2]: mixed-type; also recorded: mixed inhibitor; VMAX [2]: 56.1 mM/min; Ki [2, 8]: 40 µM; Ki ([2]; mixed type model (Eq. 3), read-out: KIU): 110 µM |
| 7-Methylluteolin [Compound 50] | 0.435 ± 0.00856 mM | 1.3 | 0.4349 ± 8e-06 mM |  | 3.36 |  |
| C[C@H]1C(=O)CC[C@@H]2[C@]1(C)CC[C@H]1[C@@]2(C)CC[C@@]2(C)[C@@H]3CC(C)(C)CC[C@]3(C)CC[C@]12C [Compound 56, Friedelin] | 0.888 ± 0.0408 mM | 1.6 and 1.61 | 0.8878 ± 4e-05 mM | 0.891 mM |  |  |
| Calein A [Compound 46] | 0.234 ± 0.0196 mM | 1.0 | 0.2345 ± 2e-05 mM |  | 3.63 |  |
| Albolutein C [Compound 98] |  | 0.8 | 0.13 ± 0.0026 mM |  | 3.89 |  |
| COc1cc(O[C@@H]2O[C@H](CO[C@@H]3OCC(O)(CO)[C@H]3O)[C@@H](O)[C@H](O)[C@H]2O)c2c(-c3ccc(O)c(O)c3)cc(=O)oc2c1 (stereo partly drawn) [Compound 73, 5-O-β-D-Apiofuranosyl-(1→6)-β-D-glucopyranosyl-7-metoxi-3'-4'-dihydroxy-4-phenylcoumarin] | 0.359 ± 0.0682 mM | 1.2 | 0.3586 ± 7e-05 mM |  | 3.45 |  |
| 4-Hydroxy-3,3',5-trimetoxybibencyl [Compound 77] |  | 1.0 | 0.221 ± 0.0001 mM |  | 3.66 | IC50 [1, 10]: 0.221 ± 0.147 mM |
| CC(=CCCC(C)C1CCC2(C)C3=C(CCC12C)C1(C)CCC(=O)C(C)(C)C1CC3)C(=O)O (stereo not drawn) [Compound 89, Isomasticadienonic acid] | 0.419 ± 0.00938 mM | 1.3 and 1.28 | 0.419 ± 1e-05 mM | 0.417 mM |  |  |
| 5,7-Diacetylchrysin [Compound 54] |  | 1.2 | 0.3618 ± 4e-05 mM |  | 3.44 | IC50 [1, 10]: 0.362 ± 0.0378 mM |
